Reference: patent US8952162B2, “Triazolopyridines as phosphodiesterase inhibitors for treatment of dermal diseases” (Leo Pharma A/S, priority 2008, dated 2015)

Each compound was assayed against Human recombinant PDE4 (Genbank accession no NM—006203) (Homo sapiens, UniProt Q08499) (assay: PDE4 assay (SPA, cAMP cleavage)). Details: Example 52; human recombinant PDE4, 1 hour incubation, cAMP 1×10^-5M, test compound up to 10 μM; read-out: PDE4 IC50 range.
Chain of Human recombinant PDE4 (Genbank accession no NM—006203) (Q08499 1-673 isoform Q08499-2): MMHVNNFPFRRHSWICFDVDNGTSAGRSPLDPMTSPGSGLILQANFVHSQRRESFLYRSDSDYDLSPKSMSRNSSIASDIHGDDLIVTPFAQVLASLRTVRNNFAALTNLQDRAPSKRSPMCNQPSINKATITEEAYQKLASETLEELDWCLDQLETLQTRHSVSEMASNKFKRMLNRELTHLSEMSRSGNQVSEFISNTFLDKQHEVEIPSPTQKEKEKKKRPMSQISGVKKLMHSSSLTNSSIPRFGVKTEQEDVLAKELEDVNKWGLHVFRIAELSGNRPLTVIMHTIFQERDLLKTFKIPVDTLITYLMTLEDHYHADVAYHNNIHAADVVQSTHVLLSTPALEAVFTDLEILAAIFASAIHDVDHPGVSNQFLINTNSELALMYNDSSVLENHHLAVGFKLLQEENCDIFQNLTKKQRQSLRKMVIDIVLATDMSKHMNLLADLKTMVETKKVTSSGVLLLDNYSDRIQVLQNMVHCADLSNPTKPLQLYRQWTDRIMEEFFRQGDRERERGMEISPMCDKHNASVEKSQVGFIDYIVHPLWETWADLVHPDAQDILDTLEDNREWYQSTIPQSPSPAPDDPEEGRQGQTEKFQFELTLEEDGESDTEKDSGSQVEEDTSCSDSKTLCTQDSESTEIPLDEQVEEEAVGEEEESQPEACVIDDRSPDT
Assay type: biochemical
Protocol: At the end of the incubation, the cleavage of the substrate was evaluated by the binding of the AMP product to SPA beads, which generate chemoluminescence when bound to the radioactive tracer. The AMP product inhibited the binding of the radioactive tracer to the beads, and the luminescent signal was competed.
In the case of `COc1ccc(-c2cccc(NS(C)(=O)=O)c2)n2nc(C3CC3)nc12` [Compound 113, N-[3-(2-Cyclopropyl-8-methoxy-[1,2,4]triazolo[1,5-a]pyridin-5-yl)-phenyl]-methanesulfonamide], the IC50 is reported as 500 to 1000 nM.
For `COc1ccc(-c2cccc(S(C)(=O)=O)c2)n2nc(C3CC3)nc12` [Compound 112, 2-Cyclopropyl-5-(3-methanesulfonyl-phenyl)-8-methoxy-[1,2,4]triazolo[1,5-a]pyridine], the IC50 was 500 to 1000 nM.
For `COc1ccc(-c2ccc(C(C)=O)s2)n2nc(C3CC3)nc12` [Compound 110, 1-[5-(2-Cyclopropyl-8-methoxy-[1,2,4]triazolo[1,5-a]pyridin-5-yl)-thiophen-2-yl]-ethanone], the IC50 was < 500 nM.
`COc1ccc(-c2ccc(OC)c3nc(C4CC4)nn23)cc1OC` [Compound 105, 2-Cyclopropyl-5-(3,4-dimethoxy-phenyl)-8-methoxy-[1,2,4]triazolo[1,5-a]pyridine] was tested, and the IC50 was < 500 nM.
For `COc1ccc(N2CCCCC2)n2nc(C3CC3)nc12` [Compound 143, 2-Cyclopropyl-8-methoxy-5-piperidin-1-yl-[1,2,4]triazolo[1,5-a]pyridine], the IC50 was < 500 nM.
`COc1ccc(-c2ccncc2)n2nc(C3CC3)nc12` [Compound 126, 2-Cyclopropyl-8-methoxy-5-pyridin-4-yl-[1,2,4]triazolo[1,5-a]pyridine] was tested, and the IC50 was < 500 nM.
`COc1ccc(-c2ccc(S(=O)(=O)N3CCOCC3)cc2)n2nc(C3CC3)nc12` [Compound 128, 2-Cyclopropyl-8-methoxy-5-[4-(morpholine-4-sulfonyl)-phenyl]-[1,2,4]triazolo[1,5-a]pyridine] was tested, and the IC50 was > 1000 nM.
In the case of `COc1ccc(-c2ccc(OC)c3nc(C4CC4)nn23)cc1` [Compound 103, 2-Cyclopropyl-8-methoxy-5-(4-methoxy-phenyl)-[1,2,4]triazolo[1,5-a]pyridine], the IC50 is reported as < 500 nM.
For `COC(=O)CCc1ccc(-c2ccc(OC)c3nc(C4CC4)nn23)cc1` [Compound 133, 3-[4-(2-Cyclopropyl-8-methoxy-[1,2,4]triazolo[1,5-a]pyridin-5-yl)-phenyl]-propionic acid methyl ester], the IC50 was 500 to 1000 nM.
With `COc1ccc(-c2cccc(F)c2)n2nc(C3CC3)nc12` [Compound 125, 2-Cyclopropyl-5-(3-fluoro-phenyl)-8-methoxy-[1,2,4]triazolo[1,5-a]pyridine] the IC50 was < 500 nM.

Same assay, conditions: Example 53; PDE4 assay as in example 52; read-out: PDE4 IC50 range
For `COc1cc(-c2ccc(OC)c3nc(C4(COC(=O)N5CCCC5)CC4)nn23)ccc1C#N` [Compound 234, Pyrrolidine-1-carboxylic acid 1-[5-(4-cyano-3-methoxy-phenyl)-8-methoxy-[1,2,4]-triazolo[1,5-a]pyridin-2-yl]-cyclopropylmethyl ester], the IC50 was < 500 nM.
In the case of `COc1ccc(-c2ccc3c(c2)COC3=O)n2nc(C3(C(=O)NCCS(C)(=O)=O)CC3)nc12` [Compound 269, 1-[8-Methoxy-5-(1-oxo-1,3-dihydro-isobenzofuran-5-yl)-[1,2,4]triazolo[1,5-a]pyridin-2-yl]-cyclopropanecarboxylic acid (2-methanesulfonyl-ethyl)-amide], the IC50 is reported as < 500 nM.
For `COc1ccc(-c2ccc3c(c2)CCC3=O)n2nc(C3(C(=O)NCc4ccccc4)CC3)nc12` [Compound 182, 1-[8-Methoxy-5-(1-oxo-indan-5-yl)-[1,2,4]triazolo[1,5-a]pyridin-2-yl]-cyclopropanecarboxylic acid benzylamide], the IC50 was < 500 nM.
In the case of `C=C(C)C(=O)OCCNC(=O)C1(c2nc3c(OC)ccc(-c4cccc(C#N)c4)n3n2)CC1` [Compound 201, 2-Methyl-acrylic acid 2-({1-[5-(3-cyano-phenyl)-8-methoxy-[1,2,4]triazolo[1,5-a]pyridin-2-yl]-cyclopropanecarbonyl}-amino)-ethyl ester], the IC50 is reported as < 500 nM.
In the case of `COc1cc(-c2ccc(OC)c3nc(C4CC4)nn23)ccc1C#N` [Compound 166, 4-(2-Cyclopropyl-8-methoxy-[1,2,4]triazolo[1,5-a]pyridin-5-yl)-2-methoxy-benzonitrile], the IC50 is reported as < 500 nM.
In the case of `COc1cc(-c2ccc(OC)c3nc(C4(C(=O)NCC5CCCCC5)CC4)nn23)ccc1C#N` [Compound 174, 1-[5-(4-Cyano-3-methoxy-phenyl)-8-methoxy-[1,2,4]triazolo[1,5-a]pyridin-2-yl]-cyclopropanecarboxylic acid cyclohexylmethyl-amide], the IC50 is reported as < 500 nM.
`COc1ccc(-c2cncc(C#N)c2)n2nc(C3(C(=O)NCCS(C)(=O)=O)CC3)nc12` [Compound 186, 1-[5-(5-Cyano-pyridin-3-yl)-8-methoxy-[1,2,4]triazolo[1,5-a]pyridin-2-yl]-cyclopropanecarboxylic acid (2-methanesulfonyl-ethyl)-amide] was tested, and the IC50 was < 500 nM.
In the case of `COc1ccc(-c2ccc3c(c2)CCC3=O)n2nc(C3(C(=O)NCCS(C)(=O)=O)CC3)nc12` [Compound 184, 1-[8-Methoxy-5-(1-oxo-indan-5-yl)-[1,2,4]triazolo[1,5-a]pyridin-2-yl]-cyclopropanecarboxylic acid (2-methanesulfonyl-ethyl)-amide], the IC50 is reported as < 500 nM.
With `COc1cc(C#N)cc(-c2ccc(OC)c3nc(C4CC4)nn23)c1` [Compound 169, 3-(2-Cyclopropyl-8-methoxy-[1,2,4]triazolo[1,5-a]pyridin-5-yl)-5-methoxy-benzonitrile] the IC50 was < 500 nM.
`COc1ccc(-c2cncc(C#N)c2)n2nc(C3(C(=O)NC(C)C)CC3)nc12` [Compound 149, 1-[5-(5-Cyano-pyridin-3-yl)-8-methoxy-[1,2,4]triazolo[1,5-a]pyridin-2-yl]-cyclopropanecarboxylic acid isopropylamide] was tested, and the IC50 was < 500 nM.
With `COc1ccc(-c2cccc(C(C)=O)c2)n2nc(C3(C(=O)NCc4cccnc4)CC3)nc12` [Compound 221, 1-[5-(3-Acetyl-phenyl)-8-methoxy-[1,2,4]triazolo[1,5-a]pyridin-2-yl]-cyclopropanecarboxylic acid (pyridin-3-ylmethyl)-amide] the IC50 was < 500 nM.
For `COc1ccc(-c2cccc(C#N)c2)n2nc(C3(C(=O)NCCS(C)(=O)=O)CC3)nc12` [Compound 199, 1-[5-(3-Cyano-phenyl)-8-methoxy-[1,2,4]triazolo[1,5-a]pyridin-2-yl]-cyclopropanecarboxylic acid (2-methanesulfonyl-ethyl)-amide], the IC50 was < 500 nM.
With `COc1ccc(-c2cccc(C(C)=O)c2)n2nc(C3(C(=O)O)CC3)nc12` [Compound 193, 1-[5-(3-Acetyl-phenyl)-8-methoxyl-[1,2,4]triazolo[1,5-a]pyridin-2-yl]-cyclopropanecarboxylic acid] the IC50 was > 1000 nM.
In the case of `COc1ccc(-c2ccc(C#N)c(C)c2)n2nc(C3CC3)nc12` [Compound 161, 4-(2-Cyclopropyl-8-methoxyl-[1,2,4]triazolo[1,5-a]pyridin-5-yl)-2-methyl-benzonitrile], the IC50 is reported as < 500 nM.
`COc1ccc(-c2cccc(C(C)=O)c2)n2nc(C3(C(=O)N4CCN(C)CC4)CC3)nc12` [Compound 222, 1-(3-{8-Methoxy-2-[1-(4-methyl-piperazine-1-carbonyl)-cyclopropyl]-[1,2,4]triazolo[1,5-a]pyridin-5-yl}-phenyl)-ethanone] showed an IC50 of 500 to 1000 nM.
With `COc1ccc(-c2ccc3c(c2)CCC3=O)n2nc(C3(COC(=O)N4CCCC4)CC3)nc12` [Compound 238, Pyrrolidine-1-carboxylic acid 1-[8-methoxy-5-(1-oxo-indan-5-yl)-[1,2,4]triazolo[1,5-a]pyridin-2-yl]-cyclopropylmethyl ester] the IC50 was < 500 nM.
For `COc1ccc(-c2cccc(C#N)c2)n2nc(C3(COC(=O)NC(C)C)CC3)nc12` [Compound 152, Isopropyl-carbamic acid 1-[5-(3-cyano-phenyl)-8-methoxy-[1,2,4]triazolo[1,5-a]pyridin-2-yl]-cyclopropylmethyl ester], the IC50 was < 500 nM.
For `COc1ccc(-c2ccc(C#N)cc2)n2nc(C3(C(=O)NCCNS(C)(=O)=O)CC3)nc12` [Compound 217, 1-[5-(4-Cyano-phenyl)-8-methoxy-[1,2,4]triazolo[1,5-a]pyridin-2-yl]-cyclopropanecarboxylic acid (2-methanesulfonylamino-ethyl)-amide], the IC50 was < 500 nM.
In the case of `COc1ccc(-c2ccc(C#N)cc2)n2nc(C3(C(=O)N4CCN(C)CC4)CC3)nc12` [Compound 204, 4-{8-Methoxy-2-[1-(4-methyl-piperazine-1-carbonyl)-cyclopropyl]-[1,2,4]triazolo[1,5-a]pyridin-5-yl}-benzonitrile], the IC50 is reported as > 1000 nM.
In the case of `COc1ccc(-c2cccc(C(C)=O)c2)n2nc(C3(C(=O)NCCS(N)(=O)=O)CC3)nc12` [Compound 225, 1-[5-(3-Acetyl-phenyl)-8-methoxy-[1,2,4]triazolo[1,5-a]pyridin-2-yl]-cyclopropanecarboxylic acid (2-sulfamoyl-ethyl)-amide], the IC50 is reported as < 500 nM.
For `COc1ccc(-c2cccc(C(C)=O)c2)n2nc(C3(C(=O)N4CCOCC4)CC3)nc12` [Compound 223, 1-(3-{8-Methoxy-2-[1-(morpholine-4-carbonyl)-cyclopropyl]-[1,2,4]-triazolo[1,5-a]pyridin-5-yl}-phenyl)-ethanone], the IC50 was < 500 nM.
For `COc1ccc(-c2ccc(C#N)cc2)n2nc(C3(C(=O)NCCS(=O)(=O)N(C)C)CC3)nc12` [Compound 219, 1-[5-(4-Cyano-phenyl)-8-methoxy-[1,2,4]triazolo[1,5-a]pyridin-2-yl]-cyclopropanecarboxylic acid (2-dimethylsulfamoyl-ethyl)-amide], the IC50 was < 500 nM.
`COc1ccc(-c2ccc(C#N)cc2)n2nc(C3(C(=O)NCCS(C)(=O)=O)CC3)nc12` [Compound 208, 1-[5-(4-Cyano-phenyl)-8-methoxy-[1,2,4]triazolo[1,5-a]pyridin-2-yl]-cyclopropanecarboxylic acid (2-methanesulfonyl-ethyl)-amide] was tested, and the IC50 was < 500 nM.
With `COc1ccc(-c2cccc3c2CCC3=O)n2nc(C3(C(=O)NCC4CCCCC4)CC3)nc12` [Compound 176, 1-[8-Methoxy-5-(1-oxo-indan-4-yl)-[1,2,4]triazolo[1,5-a]pyridin-2-yl]-cyclopropanecarboxylic acid cyclohexylmethyl-amide] the IC50 was < 500 nM.
